The test system of this assay is Plasmodium falciparum. As to the kind of experiment: GSK_TCMDC: Inhibition of Plasmodium falciparum 3D7 in whole erythrocytes, using parasite LDH activity as an index of growth. It counts as functional, organism-based.

For the compound `Cc1[nH]c2ccccc2c1C1=CCN(CCCCCNC(=O)/C=C/c2ccc(Cl)c(Cl)c2)CC1`, for the setting “Plasmodium falciparum, 3D7”, the XC50 turned out to be 272 nM.
Compound `O=C(/C=C/c1ccc(Cl)cc1)NC1CCC(CN2CCC(c3c[nH]c4ccccc34)CC2)CC1` (stereo unspecified) yielded an XC50 of 800 nM. For the setting “Plasmodium falciparum, 3D7”, this compound registered an XC50 of 727 nM.
As for `COc1ccc(NCc2cccc(-c3cccc(CNCCc4ccccc4)c3)c2)cc1`, the XC50 (Plasmodium falciparum, 3D7) stood at 1050 nM.
Same read-out and setting: in the case of `Nc1c(Cl)cc(C(O)CNCCCCCOCCCc2ccc(O)c3ncccc23)cc1Cl` (stereo unspecified) it was 992 nM; in that of `CCCc1cc(OC)c(CC2c3cc(O)c(C)cc3CCN2C)cc1OC` (stereo unspecified), 701 nM.
On the same count and under the same terms, with `COCCCNC(=N)c1ccc(NC(=O)c2ccc(C(=O)Nc3ccc(C(=N)NCCCOC)cc3)cc2)cc1` the figure was 45 nM.
Take `Cc1csc(-c2ncc(OC[C@@H](N)Cc3ccccc3)cc2-c2ccc3[nH]nc(C)c3c2)c1`: the XC50 (Plasmodium falciparum, 3D7) came to 836 nM.
`O=S(=O)(NCCN1CCCC1)c1cccc(-c2ccc(CNC3Cc4ccccc4C3)cc2)c1` came in with an XC50 (Plasmodium falciparum, 3D7) of 660 nM.
`CCNc1cc(C(=O)N[C@@H](Cc2ccccc2)[C@H](O)CN[C@@H]2CCc3ccccc32)cc(N2CCCC2=O)c1` had an XC50 (Plasmodium falciparum, 3D7) of 1020 nM.
For the setting “Plasmodium falciparum, 3D7”, `CNC(=S)NCc1cnc2ccccn12` had an XC50 of 195 nM.
Turning to `Cc1nc2ccc(Nc3nccc(-c4c(-c5cccc(NC(=O)c6c(F)cccc6F)c5)nn5ccccc45)n3)cc2nc1C`, the XC50 (Plasmodium falciparum, 3D7) is 1070 nM.
As for `CCCC1(NC[C@@H](O)[C@H](Cc2ccccc2)NC(=O)c2cc(NCC)cc(N3CCCCS3(=O)=O)c2)CCCC1`, the XC50 (Plasmodium falciparum, 3D7) was determined as 505 nM.
Still for that read-out and setting: in the case of `C(=N\Nc1nccc2sc(-c3ccccc3)cc12)/c1cccnc1` it was 821 nM; in that of `CC(C)(C)c1ccc(CN2CCCCC(NC(=O)c3cc(-c4cccc(Cl)c4)cs3)C2)cc1` (stereo unspecified), 999 nM; in that of `O=C(Nc1ccccc1)N(Cc1cccc(-c2ccc(CNCc3ccc4c(c3)OCO4)cc2)c1)C1CCN(Cc2ccccc2)CC1`, 325 nM.
In the case of `CCCNc1ccc2nccc(CCN3CCC(NCc4ccc5c(c4)NC(=O)CS5)CC3)c2n1`, for the setting “Plasmodium falciparum, 3D7”, the XC50 was 580 nM.
`Oc1ccc2c(c1NCC1CCCCC1)CCCC2`: the XC50 (Plasmodium falciparum, 3D7) turned out to be 514 nM.
Consider `CN(C)C(CNC(=O)c1cc(-c2ccncc2)c(-c2ccc(Cl)c(O)c2)o1)c1ccccc1` (stereo unspecified), for which the XC50 (Plasmodium falciparum, 3D7) stood at 843 nM.
As to `CC(Cc1ccc(Oc2ccc(Cl)cc2)cc1)NCC(O)c1cccc(Cl)c1` (stereo unspecified), where the note is “Plasmodium falciparum, 3D7”, the XC50 turned out to be 739 nM.
For the compound `CN1CCN(c2nsc3ccc(-c4ccc(OCCN5CCCC5)cc4)cc23)CC1`, the XC50 (Plasmodium falciparum, 3D7) came out at 826 nM.
Consider `Cc1sc(N2CCCCC2)nc1C(=O)Nc1ccc(F)cc1C(F)(F)F`, for which the XC50 (Plasmodium falciparum, 3D7) was 1150 nM.
Where the note is “Plasmodium falciparum, 3D7”, `COc1ccc2ncc(F)c(CCN3C4CCC3CC(NCc3cc5c(cn3)OCS5)C4)c2n1` (stereo unspecified) returned an XC50 of 923 nM.
Consider `Cc1cc(N[C@@H](Cc2ccccc2)C(=O)NCCc2ccccc2)nc(NCCc2cccs2)n1`, for which the XC50 (Plasmodium falciparum, 3D7) is 713 nM.
The compound `CCCCCCNC(=O)C1Cc2c([nH]c3ccc(Br)cc23)C2(CCN(CCc3ccccc3)CC2)N1` (stereo unspecified) came in with an XC50 (Plasmodium falciparum, 3D7) of 788 nM.
`CN(CC(=O)Nc1ccc(F)c(F)c1F)c1ncnc2sc(-c3ccccc3)cc12`: for the setting “Plasmodium falciparum, 3D7”, the XC50 was 874 nM.
Compound `Cc1nnc2c(NC(=O)/C=C/c3ccc(OC(F)(F)F)cc3)cc3cc(Cl)ccc3n12` yielded an XC50 (Plasmodium falciparum, 3D7) of 170 nM.
For `S=C(Nc1cccc(Cl)c1)NC1CCN(c2ccnc3cc(Cl)ccc23)C1` (stereo unspecified), for the setting “Plasmodium falciparum, 3D7”, the XC50 is 154 nM.
On the same count and under the same terms, in the case of `CC(C)(c1ccccc1)c1ccc(O)c(CN2CCOCC2)c1` it was 984 nM; in that of `CCNCCCC(C)Nc1ccnc2cc(Cl)ccc12` (stereo unspecified), 200 nM; in that of `CCCn1c(Sc2ccc(C#N)c([N+](=O)[O-])c2)nnc1-c1ccc(Cl)cc1`, 537 nM.
The same measure, in the same setting: in the case of `COc1ccc2[nH]cc(C3=CCN(Cc4ccccc4)CC3)c2c1` it was 569 nM; in that of `Cc1cc(N)c2cc(NC(=O)c3cc4ccccc4s3)ccc2n1`, 115 nM; in that of `Clc1ccc2c(Cl)c(CNCCCNc3nc4ccccc4[nH]3)[nH]c2c1`, 219 nM.
On the same count and under the same terms, in the case of `CCN(CCN(C)C)Cc1ccc(-c2ccc(NS(=O)(=O)c3cccc(Cl)c3)cc2)cc1` it was 523 nM.
The compound `Cc1cc(Nc2ccccc2)nc(Nc2ccccc2C)n1` registered an XC50 (Plasmodium falciparum, 3D7) of 1040 nM.
In turn, `COc1ccc2nccc([C@@H](O)CN3CCC(NCc4ccc5cccc(O)c5n4)CC3)c2c1` came in with an XC50 (Plasmodium falciparum, 3D7) of 1130 nM.
The same measure, in the same setting: with `O=C(O)C[C@H](NC(=O)CCCNC(=O)c1cccc(-c2ccc(Cl)c(Cl)c2)c1)C(=O)O` the figure was 881 nM; with `CN1CCC(NCc2cccc(-c3cccc(S(=O)(=O)NCc4ccccc4)c3)c2)CC1`, 749 nM; with `O=C(Nc1ccc(OC2CCN(Cc3ccc(F)cc3)CC2)c(Cl)c1)c1ccoc1`, 1180 nM.
Under “Plasmodium falciparum, 3D7”, `O=C(C1CCN(C(c2ccccc2)c2ccc(Cl)c(Cl)c2)CC1)N1CC=CC1` (stereo unspecified) had an XC50 of 725 nM.
Compound `COc1ccccc1CN1CCC(CNC(=O)c2cc(-c3cccc(C(F)(F)F)c3)cs2)C1` (stereo unspecified) came in with an XC50 (Plasmodium falciparum, 3D7) of 1310 nM.
Under “Plasmodium falciparum, 3D7”, `Cc1c(Cn2nc(Cl)c(N3CCNCC3)cc2=O)cccc1NC(=O)Nc1ccc(-c2ccccc2)cc1` registered an XC50 of 1380 nM.
For the setting “Plasmodium falciparum, 3D7”, `CCOc1c(Br)cc(Br)cc1CNCCCCNc1nc2ccccc2[nH]1` displayed an XC50 of 394 nM.
For the setting “Plasmodium falciparum, 3D7”, `CC(Cc1ccc(NC(=O)c2ccc(NCCc3ccccc3)cc2)cc1)NCCc1cccc(Cl)c1` (stereo unspecified) came in with an XC50 of 854 nM.
Take `CC(C)Oc1cccc(-c2ccc(C(=O)NCC3CCCN(Cc4cccc(C(F)(F)F)c4)C3)s2)c1` (stereo unspecified): under “Plasmodium falciparum, 3D7”, the XC50 came to 1080 nM.
Same read-out and setting: with `CN1CCC(NCc2ccc(-c3cccc(-c4nc5ccccc5[nH]4)c3)cc2)CC1` the figure was 126 nM; with `NC(=O)c1cccc(Nc2nccc(Nc3ccc(Oc4c(Cl)cccc4Cl)c(Cl)c3)n2)c1`, 871 nM; with `Oc1cccc(-c2nc(-c3ccccc3)c(-c3ccc4oc5ccc(-c6[nH]c(-c7cccc(O)c7)nc6-c6ccccc6)cc5c4c3)[nH]2)c1`, 795 nM.
In turn, `CCc1ccc(CN(CCCOc2cccc(CC(=O)NCc3c[nH]cn3)c2)Cc2ccc(-n3ccnc3)cc2)cc1` gave an XC50 (Plasmodium falciparum, 3D7) of 979 nM.
With `Nc1nc(N)c2cc(Cc3ccccc3Cl)cnc2n1`, the XC50 (Plasmodium falciparum, 3D7) was determined as 106 nM.
`CN(C)c1ccc(CN2CCC(CNC(=O)c3cc(-c4cccc(C(F)(F)F)c4)cs3)C2)cc1` (stereo unspecified) came in with an XC50 (Plasmodium falciparum, 3D7) of 882 nM.
Turning to `Cc1cc(-c2nc3ccc(CN4CCN(C)CC4)cc3[nH]2)nn1Cc1cc(Cl)ccc1OCc1ccccc1`, for the setting “Plasmodium falciparum, 3D7”, the XC50 was found to be 1120 nM.
`COc1cccc(CN2CCCN(Cc3cccc(NC(=O)c4ccc(-c5ccccc5)cc4)c3)CC2)c1` had an XC50 (Plasmodium falciparum, 3D7) of 244 nM.
Compound `Cc1c(Cn2ncc(N3CCC(N)CC3)c(Cl)c2=O)cccc1NC(=O)Nc1ccc(-c2ccccc2)cc1` showed an XC50 (Plasmodium falciparum, 3D7) of 697 nM.
Regarding `CCNC(=O)Nc1ccc(N(C)c2ccnc(Nc3ccc(CS(C)(=O)=O)cc3)n2)cc1`, the XC50 (Plasmodium falciparum, 3D7) was determined as 88.8 nM.
Turning to `Cc1csc2nc(-c3ccccn3)nc(Nc3ccncn3)c12`, the XC50 (Plasmodium falciparum, 3D7) turned out to be 786 nM.
On to `CN1CCN(CCNc2c3ccccc3nc3ccc4ccccc4c23)CC1`, for which the XC50 (Plasmodium falciparum, 3D7) is 534 nM.
Consider `O=C1Nc2cccc3c2C1(CCCCN1CCC(c2c[nH]c4cc(C(F)(F)F)ccc24)CC1)CCC3` (stereo unspecified), for which, where the note is “Plasmodium falciparum, 3D7”, the XC50 turned out to be 715 nM.
Same read-out and setting: in the case of `COc1cccc(C(=O)NC(c2ccc(Cl)cc2Cl)c2cc(Cl)c3cccnc3c2O)c1` (stereo unspecified) it was 454 nM; in that of `Nc1ccc(-c2cnc3[nH]cc(-c4ccc(C(=O)O)cc4)c3c2)cn1`, 964 nM.
Turning to `CS(=O)(=O)c1ccc(CCNCc2ccc(-c3ccc(CN(C(=O)c4ccco4)C4CCN(Cc5ccccc5)CC4)cc3)nc2)cc1`, under “Plasmodium falciparum, 3D7”, the XC50 was found to be 884 nM.
Consider `CCN(CC)CCN(Cc1ccc(-c2ccc(C(F)(F)F)cc2)cc1)C(=O)Cn1c(CCc2c(F)ccc(F)c2F)nc(=O)c2ccccc21`, for which the XC50 (Plasmodium falciparum, 3D7) turned out to be 238 nM.
Compound `CO/C(=C\C=C\c1cc2cc(Cl)c(Cl)cc2[nH]1)C(=O)NC1CCN(CCOc2ccccc2)CC1` gave an XC50 (Plasmodium falciparum, 3D7) of 611 nM.
Consider `Cc1cc(-c2ccc(CNCc3ccc(F)cc3)cc2)ccc1S(=O)(=O)NCCN1CCCC1`, for which the XC50 (Plasmodium falciparum, 3D7) was found to be 719 nM.
Still for that read-out and setting: with `O=C(NCCCN1CCCC1=O)c1cnc(N2CCC(Oc3ccccc3)CC2)c(Cl)c1` the figure was 305 nM.
As for `O=C(Nc1cccc(CN2CCCN(Cc3ccc(O)cc3)CC2)c1)c1cccc(Cl)c1`, the XC50 (Plasmodium falciparum, 3D7) was found to be 908 nM.
With `OCCN1CCN(Cc2ccc(-c3cccc(-c4nc5cc(C(F)(F)F)ccc5[nH]4)c3)cc2)CC1`, the XC50 (Plasmodium falciparum, 3D7) was determined as 642 nM.
Where the note is “Plasmodium falciparum, 3D7”, `COc1cc2nc(N3CCC(CNC(=O)c4ccc(-c5ccc(C#N)cc5C)cc4)CC3)nc(N)c2cc1OC` returned an XC50 of 180 nM.
On to `N#Cc1ccc(-c2ccc(OCC(O)CN3CCCN(C(=O)C(c4ccc5c(c4)OCO5)N4CCN(C/C=C/c5ccccc5)CC4)CC3)cc2)cc1` (stereo unspecified), for which the XC50 (Plasmodium falciparum, 3D7) was determined as 654 nM.
`Fc1ccc2c(NN=Cc3ccc(Cl)cc3)ccnc2c1` gave an XC50 (Plasmodium falciparum, 3D7) of 754 nM.
Compound `Fc1ccc(CNc2nc(-c3ccc(F)c(C(F)(F)F)c3)n(-c3cccc(C(F)(F)F)c3)n2)cc1` displayed an XC50 (Plasmodium falciparum, 3D7) of 563 nM.
Still for that read-out and setting: with `CC(C)c1cccc(OCC2CCN(c3ncc(C(=O)NC4CC4)cc3Cl)CC2)c1` the figure was 681 nM; with `CS(=O)(=O)c1ccc(CCNCc2ccc(-c3ccc(CN(C(=O)C4CCCC4)C4CCN(Cc5ccccc5)CC4)cc3)nc2)cc1`, 832 nM.
Under “Plasmodium falciparum, 3D7”, `CCCc1cc(NC2CCN(C)CC2)nc(Nc2ccc(F)cc2)n1` gave an XC50 of 801 nM.
In turn, `Cc1cccc2nc(-c3cccc(-c4cccc(NC(=O)c5ccc(C(N)=O)cc5)c4)c3)[nH]c12` gave an XC50 (Plasmodium falciparum, 3D7) of 323 nM.
Consider `CC(C)N1CCN(C(=O)c2ccc(CNCCCN3CCN(c4ccccc4C(F)(F)F)CC3)s2)CC1`, for which the XC50 (Plasmodium falciparum, 3D7) amounted to 837 nM.
On to `N=C(N)NCCCC(=O)NCC(N)=O`, for which the XC50 (Plasmodium falciparum, 3D7) was 165 nM.
Regarding `O=[N+]([O-])c1cccc(CNCC2CCN(Cc3ccc(-c4ccccc4)cc3)CC2)c1`, the XC50 (Plasmodium falciparum, 3D7) worked out at 248 nM.
Where the note is “Plasmodium falciparum, 3D7”, `O=C(Nc1cccc(Oc2ccccc2)c1)N[C@H]1CCN(Cc2ccc(OCCCN3CCCCC3)cc2)C1` displayed an XC50 of 724 nM.
For the setting “Plasmodium falciparum, 3D7”, `Cc1cc(NC(=O)c2ccco2)ccc1OC1CCN(Cc2ccc(F)cc2)CC1` had an XC50 of 588 nM.
Regarding `O=C(/C=C/c1ccc(Cl)c(Cl)c1)NCCCCCCN1CCN(C(=O)Nc2ccc(F)c(Cl)c2)CC1`, the XC50 (Plasmodium falciparum, 3D7) came out at 938 nM.
Where the note is “Plasmodium falciparum, 3D7”, `CN1CCN(c2ccc(-c3cccc(NC(=O)c4ccc5ccccc5c4)c3)nn2)CC1` gave an XC50 of 383 nM.
As to `NCc1ccc(Nc2nccc(Nc3ccc(-c4ccccc4)cc3)n2)cc1`, under “Plasmodium falciparum, 3D7”, the XC50 was 892 nM.
In the case of `Clc1ccc2c(NCCc3ccccn3)ccnc2c1`, the XC50 (Plasmodium falciparum, 3D7) was 832 nM.
Consider `Cc1ccc(CNC(=O)[C@H](Cc2ccccc2)Nc2cc(C)nc(Nc3ccccc3)n2)cc1`, for which the XC50 (Plasmodium falciparum, 3D7) was 853 nM.

The values are drawn from ChEMBL document CHEMBL1157539, “Thousands of chemical starting points for antimalarial lead identification” (Nature, 2010).
